From PMC7531004, “Discovery of gramicidin A analogues with altered activities by multidimensional screening of a one-bead-one-compound library” (Nature Communications, 2020) come the findings set out here.

Where a SMILES comes first, the peptide text is derived from it. [ ]: non-standard residue; d: D form. The star is where a group is joined. NHCH2CH2OH = OCCN*; For = O=C*

For data set [1], the system named is Streptococcus pyogenes SSI-9. Nature of the data set: Antibacterial activity assay of bead-derived peptides (three concentrations). The conditions noted are these: S. pyogenes, bead-derived peptide solution, three concentrations. Type of data set: cell-based. On the set-up: key: +++: inhibition by the 640-fold diluted peptide solution; ++: inhibition by the 160-fold diluted solution; +: inhibition by the 40-fold diluted solution; -: no inhibition. The method, boiled down:
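Growth inhibition scored visually as precipitated bacteria after 37 °C, 18 h incubation. Streptococcus pyogenes SSI-9 inoculum of 2 × 10^5 CFU in Ca2+/Mg2+-adjusted Mueller Hinton broth plus 5% laked horse blood; peptides tested at three levels: stock, 4-fold and 16-fold DMSO dilutions.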

Data set [2] has as its system P388 mouse leukemia cells. Conditions: 92 h. The method, boiled down: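 Peptide stocks diluted 250× in growth medium; P388 cells 1 × 10^4 cells/mL final; 37 °C, 5% CO2, 92 h. WST-1 + 1-methoxy PMS, 4 h, A415. Output: % viability.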
Data set [3] can be described thus: H+/Na+ transport assay of bead-derived peptides (one-point).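 Also: relative to parent gramicidin A activity set to 1.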 Type of data set: biochemical. Details: key: relative activity; mean of two control wells = 1.00. Conditions: bead-derived peptide solution, EYPC/EYPG LUVs. The method, boiled down:
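Pyranine (1.0 mM)-loaded LUVs containing egg yolk phosphatidylglycerol were prepared by film hydration, sonication and extrusion, then mixed with diluted bead-derived peptide in 96-well format and vortexed 30 min at room temperature. Fluorescence was normalized between untreated LUVs (0%) and Triton X-100 lysis (100%).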

In the case of `CC(C)C[C@@H](NC(=O)[C@H](Cc1c[nH]c2ccccc12)NC(=O)[C@H](NC(=O)[C@H](Cc1c[nH]c2ccccc12)NC(=O)[C@H](NC(=O)[C@@H](NC(=O)[C@H](NC(=O)[C@H](C)NC(=O)[C@H](NC(=O)[C@H](C)NC(=O)CNC(=O)[C@@H](NC=O)C(C)C)[C@H](C)O)C(C)C)C(C)C)C(C)C)C(C)C)C(=O)N[C@@H](Cc1c[nH]c2ccccc12)C(=O)N[C@@H](C(=O)N[C@@H](Cc1c[nH]c2ccccc12)C(=O)NCCO)C(C)C` [compound 10653] (For-VGA[dT]A[dV]V[dV]W[dV]W[dL]W[dV]W-NHCH2CH2OH), the antibacterial activity entry in data set [1] is “-”. The molecule further showed a cell viability/% in data set [2] of 44.1%. Further, in data set [3], the “H+/Na+ transport activity normalized against the value of 1 (1.00)” value (from here on “H+/Na+ transport activity normalized”) amounted to 1.04.

`CC(C)C[C@@H](NC(=O)[C@H](Cc1c[nH]c2ccccc12)NC(=O)[C@@H](CC(C)C)NC(=O)[C@H](Cc1c[nH]c2ccccc12)NC(=O)[C@H](NC(=O)[C@H](Cc1c[nH]c2ccccc12)NC(=O)[C@@H](CC(C)C)NC(=O)[C@@H](NC(=O)[C@H](NC(=O)[C@H](C)NC(=O)[C@H](NC(=O)[C@H](C)NC(=O)CNC(=O)[C@@H](NC=O)C(C)C)C(C)C)C(C)C)C(C)C)C(C)C)C(=O)N[C@@H](Cc1c[nH]c2ccccc12)C(=O)NCCO` [compound 10661] (For-VGA[dV]A[dV]V[dL]W[dV]W[dL]W[dL]W-NHCH2CH2OH): in data set [1], the antibacterial activity entry is reported as “+”. Besides, the cell viability/% in data set [2] came out at 39.9%. In addition, the “H+/Na+ transport activity normalized” value in data set [3] is 1.03.

In the case of `CC(C)C[C@@H](NC(=O)[C@H](Cc1c[nH]c2ccccc12)NC(=O)[C@H](NC(=O)[C@H](Cc1c[nH]c2ccccc12)NC(=O)[C@H](NC(=O)[C@H](Cc1c[nH]c2ccccc12)NC(=O)[C@@H](CC(C)C)NC(=O)[C@@H](NC(=O)[C@H](NC(=O)[C@H](C)NC(=O)[C@H](NC(=O)[C@H](C)NC(=O)CNC(=O)[C@@H](NC=O)C(C)C)C(C)C)C(C)C)C(C)C)C(C)C)C(C)C)C(=O)N[C@@H](Cc1c[nH]c2ccccc12)C(=O)NCCO` [compound 10668] (For-VGA[dV]A[dV]V[dL]W[dV]W[dV]W[dL]W-NHCH2CH2OH), the antibacterial activity entry in data set [1] is on record as “+”. The molecule further returned a cell viability/% in data set [2] of 57.1%. Besides, the “H+/Na+ transport activity normalized” value in data set [3] is 1.09.

As to `CNC(=O)C[C@@H](NC(=O)[C@@H](NC(=O)[C@H](NC(=O)[C@H](C)NC(=O)[C@@H](CC(C)C)NC(=O)[C@H](C)NC(=O)CNC(=O)[C@@H](NC=O)C(C)C)C(C)C)C(C)C)C(=O)N[C@@H](Cc1c[nH]c2ccccc12)C(=O)N[C@H](CC(C)C)C(=O)N[C@@H](Cc1c[nH]c2ccccc12)C(=O)N[C@@H](C(=O)N[C@@H](Cc1c[nH]c2ccccc12)C(=O)N[C@H](CC(C)C)C(=O)N[C@@H](Cc1c[nH]c2ccccc12)C(=O)NCCO)C(C)C` [compound 10669] (For-VGA[dL]A[dV]V[dD](NHMe)W[dL]W[dV]W[dL]W-NHCH2CH2OH), the antibacterial activity result in data set [1] is “-”. Also, the cell viability/% in data set [2] worked out at 55.2%. In addition, the “H+/Na+ transport activity normalized” value in data set [3] was 1.11.

Consider `CNC(=O)C[C@@H](NC(=O)[C@H](Cc1c[nH]c2ccccc12)NC(=O)[C@@H](CC(C)C)NC(=O)[C@H](Cc1c[nH]c2ccccc12)NC(=O)[C@H](NC(=O)[C@H](Cc1c[nH]c2ccccc12)NC(=O)[C@H](NC(=O)[C@@H](NC(=O)[C@@H](CC(C)C)NC(=O)[C@H](C)NC(=O)[C@@H](CC(C)C)NC(=O)[C@H](C)NC(=O)CNC(=O)[C@@H](NC=O)C(C)C)C(C)C)C(C)C)C(C)C)C(=O)N[C@@H](Cc1c[nH]c2ccccc12)C(=O)NCCO` [compound 10678] (For-VGA[dL]A[dL]V[dV]W[dV]W[dL]W[dD](NHMe)W-NHCH2CH2OH), for which, in data set [1], the antibacterial activity entry is “-”. Besides, the cell viability/% in data set [2] is listed as 76.0%. In addition, the “H+/Na+ transport activity normalized” value in data set [3] stood at 1.10.

In the case of `CC(C)C[C@@H](NC(=O)[C@H](Cc1c[nH]c2ccccc12)NC(=O)[C@H](NC(=O)[C@H](Cc1c[nH]c2ccccc12)NC(=O)[C@H](NC(=O)[C@H](Cc1c[nH]c2ccccc12)NC(=O)[C@H](NC(=O)[C@@H](NC(=O)[C@H](NC(=O)[C@H](C)NC(=O)[C@H](NC(=O)[C@H](C)NC(=O)CNC(=O)[C@@H](NC=O)C(C)C)C(C)C)C(C)C)C(C)C)C(C)C)C(C)C)C(C)C)C(=O)N[C@@H](Cc1c[nH]c2ccccc12)C(=O)NCCO` [compound 10699] (For-VGA[dV]A[dV]V[dV]W[dV]W[dV]W[dL]W-NHCH2CH2OH), the antibacterial activity result in data set [1] is given as “-”. Also, the cell viability/% in data set [2] is given as 100.0%. The “H+/Na+ transport activity normalized” value in data set [3] is listed as 1.09.

For `CC(C)C[C@@H](NC(=O)[C@H](C)NC(=O)CNC(=O)[C@@H](NC=O)C(C)C)C(=O)N[C@@H](C)C(=O)N[C@H](CC(C)C)C(=O)N[C@H](C(=O)N[C@@H](C(=O)N[C@@H](Cc1c[nH]c2ccccc12)C(=O)N[C@@H](C(=O)N[C@@H](Cc1c[nH]c2ccccc12)C(=O)N[C@H](CC(C)C)C(=O)N[C@@H](Cc1c[nH]c2ccccc12)C(=O)N[C@H](CC(C)C)C(=O)N[C@@H](Cc1c[nH]c2ccccc12)C(=O)NCCO)C(C)C)[C@H](C)O)C(C)C` [compound 10710] (For-VGA[dL]A[dL]V[dT]W[dV]W[dL]W[dL]W-NHCH2CH2OH), in data set [1], the antibacterial activity entry is recorded as “-”. In data set [2], the cell viability/% stood at 100.0%. Also, in data set [3], the “H+/Na+ transport activity normalized” value came to 1.05.

On to `CC(C)C[C@@H](NC(=O)[C@H](C)NC(=O)[C@H](NC(=O)[C@H](C)NC(=O)CNC(=O)[C@@H](NC=O)C(C)C)C(C)C)C(=O)N[C@H](C(=O)N[C@@H](C(=O)N[C@@H](Cc1c[nH]c2ccccc12)C(=O)N[C@@H](C(=O)N[C@@H](Cc1c[nH]c2ccccc12)C(=O)N[C@@H](C(=O)N[C@@H](Cc1c[nH]c2ccccc12)C(=O)N[C@H](CC(C)C)C(=O)N[C@@H](Cc1c[nH]c2ccccc12)C(=O)NCCO)C(C)C)C(C)C)[C@H](C)O)C(C)C` [compound 11143] (For-VGA[dV]A[dL]V[dT]W[dV]W[dV]W[dL]W-NHCH2CH2OH), for which, in data set [1], the antibacterial activity entry is given as “-”. Further, the cell viability/% in data set [2] came to 63.4%. For the same molecule, the “H+/Na+ transport activity normalized” value in data set [3] is listed as 1.19.

`CC(C)C[C@@H](NC(=O)[C@H](Cc1c[nH]c2ccccc12)NC(=O)[C@@H](CC(C)C)NC(=O)[C@H](Cc1c[nH]c2ccccc12)NC(=O)[C@H](NC(=O)[C@H](Cc1c[nH]c2ccccc12)NC(=O)[C@@H](CC(C)C)NC(=O)[C@@H](NC(=O)[C@H](NC(=O)[C@H](C)NC(=O)[C@H](NC(=O)[C@H](C)NC(=O)CNC(=O)[C@@H](NC=O)C(C)C)C(C)C)C(C)C)C(C)C)C(C)C)C(=O)N[C@@H](Cc1c[nH]c2ccccc12)C(=O)NCCO` [compound 11146] (For-VGA[dV]A[dV]V[dL]W[dV]W[dL]W[dL]W-NHCH2CH2OH): the antibacterial activity entry in data set [1] is on record as “+”. This molecule had a cell viability/% in data set [2] of 100.0%. The “H+/Na+ transport activity normalized” value in data set [3] was 1.08.

Take `CC(C)C[C@@H](NC(=O)[C@H](C)NC(=O)CNC(=O)[C@@H](NC=O)C(C)C)C(=O)N[C@@H](C)C(=O)N[C@H](CC(C)C)C(=O)N[C@H](C(=O)N[C@H](CC(C)C)C(=O)N[C@@H](Cc1c[nH]c2ccccc12)C(=O)N[C@@H](C(=O)N[C@@H](Cc1c[nH]c2ccccc12)C(=O)N[C@H](CC(C)C)C(=O)N[C@@H](Cc1c[nH]c2ccccc12)C(=O)N[C@H](CC(C)C)C(=O)N[C@@H](Cc1c[nH]c2ccccc12)C(=O)NCCO)C(C)C)C(C)C` [compound 11198] (For-VGA[dL]A[dL]V[dL]W[dV]W[dL]W[dL]W-NHCH2CH2OH): the antibacterial activity result in data set [1] is “-”. This molecule yielded a cell viability/% in data set [2] of 3.2%. For the same molecule, in data set [3], the “H+/Na+ transport activity normalized” value amounted to 1.08.

Consider `CC(C)C[C@@H](NC(=O)[C@H](Cc1c[nH]c2ccccc12)NC(=O)[C@H](NC(=O)[C@H](Cc1c[nH]c2ccccc12)NC(=O)[C@@H](CC(C)C)NC(=O)[C@H](Cc1c[nH]c2ccccc12)NC(=O)[C@H](NC(=O)[C@@H](NC(=O)[C@H](NC(=O)[C@H](C)NC(=O)[C@H](NC(=O)[C@H](C)NC(=O)CNC(=O)[C@@H](NC=O)C(C)C)[C@H](C)O)C(C)C)C(C)C)C(C)C)C(C)C)C(=O)N[C@@H](Cc1c[nH]c2ccccc12)C(=O)NCCO` [compound 11199] (For-VGA[dT]A[dV]V[dV]W[dL]W[dV]W[dL]W-NHCH2CH2OH), for which the antibacterial activity result in data set [1] is “-”. The molecule also yielded a cell viability/% in data set [2] of 65.2%. Besides, the “H+/Na+ transport activity normalized” value in data set [3] stood at 1.00.

Regarding `CC(C)C[C@@H](NC(=O)[C@H](C)NC(=O)CNC(=O)[C@@H](NC=O)C(C)C)C(=O)N[C@@H](C)C(=O)N[C@H](CC(C)C)C(=O)N[C@H](C(=O)N[C@H](CC(C)C)C(=O)N[C@@H](Cc1c[nH]c2ccccc12)C(=O)N[C@H](CC(C)C)C(=O)N[C@@H](Cc1c[nH]c2ccccc12)C(=O)N[C@@H](C(=O)N[C@@H](Cc1c[nH]c2ccccc12)C(=O)N[C@@H](C(=O)N[C@@H](Cc1c[nH]c2ccccc12)C(=O)NCCO)C(C)C)C(C)C)C(C)C` [compound 11214] (For-VGA[dL]A[dL]V[dL]W[dL]W[dV]W[dV]W-NHCH2CH2OH), in data set [1], the antibacterial activity result is “-”. This molecule registered a cell viability/% in data set [2] of 2.6%. In data set [3], the “H+/Na+ transport activity normalized” value stood at 1.02.
